# Starred links: 1 amine or outer side, 2 acyl side, 3 side chain; linkers in the order of their positions; H or OH if unused. Non-standard residues stand in square brackets, D forms with d. Residues, ends and D or L forms follow the SMILES beside them. ξ: configuration not given here. *: point of attachment. Phe(4-Cl) = N[C@@H](Cc1ccc(Cl)cc1)C(=O)O; γGlu = O=C(O)[C@H](CCC(=O)[*:2])N[*:1]; 2Nal = N[C@@H](Cc1ccc2ccccc2c1)C(=O)O; NMeR = CN[C@@H](CCCNC(=N)N)C(=O)O; Tridecanoyl = CCCCCCCCCCCCC(=O)*; hArg = N=C(N)NCCCC[C@H](N)C(=O)O; Cha = N[C@@H](CC1CCCCC1)C(=O)O; αMeL = CC(C)C[C@](C)(N)C(=O)O; Pip = O=C(O)[C@@H]1CCCCN1; Nle = CCCC[C@H](N)C(=O)O; ξαMeP = CC1(C(=O)O)CCCN1; ξβ3hV = CC(C)C(N)CC(=O)O; AEEA = NCCOCCOCC(=O)O; Aib = CC(C)(N)C(=O)O; βAla = NCCC(=O)O
# Legend:
# [1] = In vitro stability in rat liver homogenate; format: in vitro ADME; conditions: tissue homogenate
# Method: (§1) Apelin peptides were spiked into rat plasma, liver homogenate, and kidney homogenate, which were obtained from commercial sources, to a final concentration of 5 μM. The samples were then incubated at 37° C. over a period of 4 hr. […] In a typical experiment, an aliquot of 100 μL of sample was taken from the incubation vial, followed by addition of 300 μL of MeOH containing internal standard. The quenched sample was centrifuged at 5500 g for 15 min after 15 min vortex in room temperature. The supernatant was then analyzed by high resolution LC-MS. […] In vitro plasma, […], and kidney stability results are shown below in Table 14.
# [2] = In vitro stability in rat plasma; format: in vitro ADME
# Method: as §1
"remaining at 4 h, 5 μM [1] [%]","remaining at 4 h, 5 μM [2] [%]",Compound
< 1,21,CCCCCCCCCCCCC(=O)N[C@@H](CCC(=O)NCCOCCOCC(=O)NCCOCCOCC(=O)N[C@@H](CCC(N)=O)C(=O)N[C@@H](CCCNC(=N)N)C(=O)N1CCC[C@H]1C(=O)N(C)[C@@H](CCCNC(=N)N)C(=O)N[C@@H](CC(C)C)C(=O)NCCC(=O)N[C@@H](Cc1c[nH]cn1)C(=O)N[C@@H](CCCCN)C(=O)NCC(=O)N1CCC[C@H]1C(=O)N[C@@H](CCCC)C(=O)N1CCC[C@H]1C(=O)N[C@@H](Cc1ccc(Cl)cc1)C(=O)O)C(=O)O [compound 464] ({Tridecanoyl-γGlu-AEEA-AEEA}-QRP[NMeR]L[βAla]HKGP[Nle]P[Phe(4-Cl)]-OH)
< 1,82,CCCCCCCCCCCCC(=O)N[C@@H](CCC(=O)NCCOCCOCC(=O)NCCOCCOCC(=O)N[C@@H](CCC(N)=O)C(=O)N[C@@H](CCCCNC(=N)N)C(=O)N1CCC[C@H]1C(=O)N(C)[C@@H](CCCNC(=N)N)C(=O)N[C@@](C)(CC(C)C)C(=O)N[C@@H](CO)C(=O)N[C@@H](Cc1c[nH]cn1)C(=O)N[C@@H](CCCCN)C(=O)NCC(=O)N1CCC[C@H]1C(=O)N[C@@H](CCCC)C(=O)N1CCC[C@H]1C(=O)N[C@@H](Cc1ccc2ccccc2c1)C(=O)O)C(=O)O [compound 473] ({Tridecanoyl-γGlu-AEEA-AEEA}-Q[hArg]P[NMeR][αMeL]SHKGP[Nle]P[2Nal]-OH)
0,20,CCCCCCCCCCCCC(=O)N[C@@H](CCC(=O)NCCOCCOCC(=O)NCCOCCOCC(=O)N[C@@H](CCC(N)=O)C(=O)N[C@@H](CCCCNC(=N)N)C(=O)N1CCC[C@H]1C(=O)N(C)[C@@H](CCCNC(=N)N)C(=O)N[C@@H](CC(C)C)C(=O)N[C@@H](CO)C(=O)N[C@@H](Cc1c[nH]cn1)C(=O)N[C@@H](CCCCN)C(=O)NCC(=O)N1CCC[C@H]1C(=O)N[C@@H](CCCC)C(=O)N1CCC[C@H]1C(=O)N[C@@H](Cc1ccc(Cl)cc1)C(=O)O)C(=O)O [compound 353]
< 1,37,CCCCCCCCCCCCC(=O)N[C@@H](CCC(=O)NCCOCCOCC(=O)NCCOCCOCC(=O)N[C@@H](CCC(N)=O)C(=O)N[C@@H](CCCNC(=N)N)C(=O)N1CCC[C@H]1C(=O)N(C)[C@@H](CCCNC(=N)N)C(=O)N[C@H](CC(=O)N[C@@H](CO)C(=O)N[C@@H](Cc1c[nH]cn1)C(=O)N[C@@H](CCCCN)C(=O)NCC(=O)N1CCC[C@H]1C(=O)N[C@@H](CCCC)C(=O)N1CCC[C@H]1C(=O)N[C@@H](Cc1ccc(Cl)cc1)C(=O)O)CC(C)C)C(=O)O [compound 422]
< 1,33,CCCCCCCCCCCCC(=O)N[C@@H](CCC(=O)NCCOCCOCC(=O)NCCOCCOCC(=O)N[C@@H](CCC(N)=O)C(=O)N[C@@H](CCCNC(=N)N)C(=O)N1CCC[C@H]1C(=O)N(C)[C@@H](CCCNC(=N)N)C(=O)N[C@@H](CC(C)C)C(=O)N[C@@H](CO)C(=O)N[C@@H](Cc1c[nH]cn1)C(=O)N[C@@H](CCCCN)C(=O)NCC(=O)N1CCC[C@H]1C(=O)N[C@@H](CCCC)C(=O)N1CCC[C@H]1CC(=O)N[C@@H](Cc1ccc(Cl)cc1)C(=O)O)C(=O)O [compound 426]
0,56,CCCCCCCCCCCCC(=O)N[C@@H](CCC(=O)NCCOCCOCC(=O)NCCOCCOCC(=O)N[C@@H](CCC(N)=O)C(=O)N[C@@H](CCCCNC(=N)N)C(=O)N1CCC[C@H]1C(=O)N[C@@H](CCCCNC(=N)N)C(=O)N[C@@H](CC(C)C)C(=O)N[C@@H](CO)C(=O)N[C@@H](Cc1c[nH]cn1)C(=O)N[C@@H](CCCCN)C(=O)NCC(=O)N1CCC[C@H]1C(=O)N[C@@H](CCCC)C(=O)N1CCC[C@H]1C(=O)N[C@@H](Cc1ccc(Cl)cc1)C(=O)O)C(=O)O [compound 357]
< 1,7,CSCC[C@H](NC(=O)[C@@H](N)CS)C(=O)N1CCC[C@H]1C(=O)N[C@@H](CC(C)C)C(=O)N[C@@H](Cc1cnc[nH]1)C(=O)N[C@@H](CO)C(=O)N[C@@H](CCCNC(=N)N)C(=O)N[C@H](C(=O)N1CCC[C@H]1C(=O)N[C@@H](Cc1ccccc1)C(=O)N1CCC[C@H]1C(=O)O)C(C)C [compound 13]
< 1,> 90,CCCCCCCCCCCCC(=O)N[C@@H](CCC(=O)NCCOCCOCC(=O)NCCOCCOCC(=O)N[C@H](CCC(N)=O)C(=O)N[C@@H](CCCNC(=N)N)C(=O)N1CCC[C@H]1C(=O)N(C)[C@@H](CCCNC(=N)N)C(=O)N[C@@H](CC1CCCCC1)C(=O)N[C@@H](CO)C(=O)N[C@@H](Cc1c[nH]cn1)C(=O)N[C@@H](CCCCN)C(=O)NCC(=O)N1CCCC[C@H]1C(=O)N[C@@H](CCCC)C(=O)NC(C)(C)C(=O)N[C@@H](Cc1ccc(Cl)cc1)C(=O)O)C(=O)O [compound 499] ({Tridecanoyl-γGlu-AEEA-AEEA}-[dQ]RP[NMeR][Cha]SHKG[Pip][Nle][Aib][Phe(4-Cl)]-OH)
< 1,> 90,CCCCCCCCCCCCC(=O)N[C@@H](CCC(=O)NCCOCCOCC(=O)NCCOCCOCC(=O)N[C@H](CCC(N)=O)C(=O)N[C@@H](CCCNC(=N)N)C(=O)N1CCCC1(C)C(=O)N[C@@H](CCCCNC(=N)N)C(=O)NC(CC(=O)N[C@@H](CO)C(=O)N[C@@H](Cc1c[nH]cn1)C(=O)N[C@@H](CCCCN)C(=O)NCC(=O)N1CCCC[C@H]1C(=O)N[C@@H](CCCC)C(=O)N[C@@H](Cc1ccc(Cl)cc1)C(=O)O)C(C)C)C(=O)O (stereo partly drawn) [compound 501] ({Tridecanoyl-γGlu-AEEA-AEEA}-[dQ]R[ξαMeP][hArg][ξβ3hV]SHKG[Pip][Nle][Phe(4-Cl)]-OH)
0,64,CCCCCCCCCCCCC(=O)N[C@@H](CCC(=O)NCCOCCOCC(=O)NCCOCCOCC(=O)N[C@@H](CCC(N)=O)C(=O)N[C@@H](CCCNC(=N)N)C(=O)N1CCC[C@H]1C(=O)N[C@@H](CCCCNC(=N)N)C(=O)N[C@@H](CC(C)C)C(=O)N[C@@H](CO)C(=O)N[C@@H](Cc1c[nH]cn1)C(=O)N[C@@H](CCCCN)C(=O)NCC(=O)N1CCC[C@H]1C(=O)N[C@@H](CCCC)C(=O)N1CCC[C@H]1C(=O)N[C@@H](Cc1ccc(Cl)cc1)C(=O)O)C(=O)O [compound 355]
< 1,79,CCCCCCCCCCCCC(=O)N[C@@H](CCC(=O)NCCOCCOCC(=O)NCCOCCOCC(=O)N[C@@H](CCC(N)=O)C(=O)N(C)[C@@H](CCCCNC(=N)N)C(=O)N1CCC[C@H]1C(=O)N(C)[C@@H](CCCNC(=N)N)C(=O)N[C@@](C)(CC(C)C)C(=O)N[C@@H](CO)C(=O)N[C@@H](Cc1c[nH]cn1)C(=O)N[C@@H](CCCCN)C(=O)NCC(=O)N1CCC[C@H]1C(=O)N[C@@H](CCCC)C(=O)N1CCC[C@H]1C(=O)N[C@@H](Cc1ccc(Cl)cc1)C(=O)O)C(=O)O [compound 484]
< 1,36,CCCCCCCCCCCCC(=O)N[C@@H](CCC(=O)NCCOCCOCC(=O)NCCOCCOCC(=O)N[C@@H](CCC(N)=O)C(=O)N[C@@H](CCCNC(=N)N)C(=O)N1CCC[C@H]1C(=O)N(C)[C@@H](CCCNC(=N)N)C(=O)N[C@@H](CC(C)C)C(=O)N[C@@H](CO)C(=O)N[C@H](CN[C@@H](CCCCN)C(=O)NCC(=O)N1CCC[C@H]1C(=O)N[C@@H](CCCC)C(=O)N1CCC[C@H]1C(=O)N[C@@H](Cc1ccc(Cl)cc1)C(=O)O)Cc1c[nH]cn1)C(=O)O [compound 469]

# — US11807693B2 (priority 2014, dated 2023)
